{"source": "paper PMC8234192", "about": "(2021)", "system": "dsDNA (69 bp) (DNA, duplex) GATACGAGCATCGTGTAGGCATCGTAGGTAATACGGATGTGCTAGCTTATTGAATTCAGAGATCTATGC/GCATAGATCTCTGAATTCAATAAGCTAGCACATCCGTATTACCTACGATGCCTACACGATGCTCGTATC", "test": "fluorescence molecular brightness titration (FCS set-up)", "settings": "137 mM Na+, 2.7 mM K+, PBS pH 7.4, 0.002% Tween20, 25 °C, 20 nM YOYO-1, mono-intercalation step, 3.5 bp per site", "data": [{"smiles": "CN1C(=Cc2cc[n+](CCC[N+](C)(C)CCC[N+](C)(C)CCC[n+]3ccc(C=C4Oc5ccccc5N4C)c4ccccc43)c3ccccc23)Oc2ccccc21", "values": [{"measurement": "K1", "result": "3.36 ± 0.43 × 10^7 M^-1"}]}]}
